Drawing on PubChem BioAssay (NCI), this text covers TGI and GI50 for three molecules.

Test systems include SF-268 CNS; MOLT-4 leukemia; OVCAR-4 ovarian; TK-10 renal; NCI/ADR-RES ovarian; IGROV1 ovarian; A498 renal; SK-MEL-28 melanoma; SNB-19 CNS; COLO 205 colon; HOP-92 NSCLC; SNB-75 CNS; NCI-H460 lung; NCI-H226 lung; RPMI-8226 leukemia; SN12C renal; CCRF-CEM leukemia; UACC-62 melanoma.
What all share (experiment): NCI tumour cell line growth inhibition, 48 h

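Dose response: 5 concentrations. Exposure: 48 h. Format: 96-well plates. Endpoint: linear interpolation; highest concentration if not reached. GI50: concentration for 50% inhibition of growth. The concentration for full growth arrest is given as TGI.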

Turning to `NCCSC1(O)C(=O)c2ccccc2-c2ccccc21` (stereo not given), the TGI in the experiment with SF-268 CNS was 2.91 µM; in the experiment with MOLT-4 leukemia, 1.21 µM; with OVCAR-4 ovarian, 0.556 µM; in the experiment on TK-10 renal it was 3.26 µM; in the experiment on NCI/ADR-RES ovarian, 1.4 µM; with IGROV1 ovarian, 3.73 µM. Further, the TGI is 3.11 µM in the experiment with A498 renal; 2.85 µM with SK-MEL-28 melanoma; 2.86 µM in the experiment with SNB-19 CNS; 3.84 µM with COLO 205 colon; 2.62 µM with HOP-92 NSCLC; 2.4 µM in the experiment with SNB-75 CNS. Besides, the TGI was 3.34 µM with NCI-H460 lung; 2.99 µM in the experiment on NCI-H226 lung; 0.637 µM in the experiment on RPMI-8226 leukemia; 2.76 µM with SN12C renal; 6.82 µM with CCRF-CEM leukemia; 2.91 µM in the experiment on UACC-62 melanoma. Besides, the results for the GI50 in the experiment with A498 renal and with HOP-92 NSCLC were 1.71 µM and 1.3 µM, respectively.

As for `CCOC(=O)C(=NN(C)c1ncccc1N)C(=O)OCC`, the TGI with SF-268 CNS was above 100 µM; in the experiment on MOLT-4 leukemia, 53.7 µM; in the experiment with OVCAR-4 ovarian it was above 100 µM; in the experiment on TK-10 renal, above 100 µM; in the experiment on NCI/ADR-RES ovarian it was above 100 µM; in the experiment on IGROV1 ovarian it was above 100 µM. In addition, the TGI in the experiment with A498 renal was above 100 µM; in the experiment on SK-MEL-28 melanoma it was above 100 µM; with SNB-19 CNS, above 100 µM; in the experiment on COLO 205 colon, 29 µM; in the experiment with HOP-92 NSCLC it was 46.2 µM; in the experiment on SNB-75 CNS it was above 100 µM. In addition, the TGI is above 100 µM with NCI-H460 lung; 47.6 µM in the experiment with NCI-H226 lung; above 100 µM with RPMI-8226 leukemia; 64.5 µM in the experiment on SN12C renal; above 100 µM in the experiment on CCRF-CEM leukemia; above 100 µM with UACC-62 melanoma.

Consider `COc1cc2c(OC)c3cc(C)oc(=O)c3c(O)c2c(O)c1-c1c(OC)cc2c(OC)c3cc(C)oc(=O)c3c(O)c2c1O`, for which the TGI in the experiment on SF-268 CNS was 42.6 µM; with MOLT-4 leukemia it was 31.8 µM; in the experiment with OVCAR-4 ovarian, above 100 µM; in the experiment with TK-10 renal, 66.8 µM; in the experiment on NCI/ADR-RES ovarian, 35.7 µM; in the experiment on IGROV1 ovarian it was 31.1 µM. The TGI in the experiment with A498 renal was 51 µM; in the experiment on SK-MEL-28 melanoma, 53.5 µM; in the experiment with SNB-19 CNS, 65.1 µM; in the experiment on HOP-92 NSCLC it was 55.9 µM; with SNB-75 CNS it was above 100 µM; in the experiment with NCI-H460 lung, 42.5 µM. For the same molecule, the TGI in the experiment with NCI-H226 lung was determined as 38.2 µM; in the experiment with RPMI-8226 leukemia, 40.2 µM; with SN12C renal it was 45.2 µM; in the experiment on CCRF-CEM leukemia, 39.3 µM; in the experiment with UACC-62 melanoma, 41 µM.
